Experiments:
Test in all cases: Biofilm growth assay in BHI, crystal violet
Assay type in all cases: cell-based
Conditions in all cases: control = 1
Actinomyces naeslundii = system: Actinomyces naeslundii
Description: (§1) The increase in biofilm formation of the tested bacteria in response to selected compounds (Met-Pro, Phe-Glu) was investigated by setting up biofilm growth assays in a nutritionally rich medium (brain heart infusion broth (BHI), Oxoid), over 48 hours. Late exponential growth phase liquid cultures were prepared by transferring the respective bacterium from blood agar plates to BHI and overnight incubation at 37° C. in an anaerobic atmosphere for A. viscosus, V. parvula, F. nucleatum, P. gingivalis, P. intermedia, T. forsythia, A. naeslundii, and C. sputigena, and in a 5% CO2 environment for S. salivarius, S. sanguinis, S. mitis, A. actinomycetemcomitans, S. mutans, and S. gordonii. Overnight cultures were transferred to BHI and adjusted to a concentration of 1×10^7 CFU/ml by measuring the optical density at 600 nm (OD600) (BioRad SmartSpec 3000). For each strain, 200 μl of the bacterial suspension was added to a 96-well plate containing 20 μl of the respective di-peptides. Final concentrations of the di-peptides were set to 5, 10, 20 and 25 μmol/ml. […] Additionally, for each bacterium tested, a background control, to correct for background staining, was added. This background control contained the bacterium tested and 0.03 weight % chlorhexidine, as an antiseptic. Plates were incubated as previously described. After 48 hrs the supernatant was removed from the wells of the plates. The wells were washed twice with 1×100 μL PBS (phosphate buffered saline), fixed for 20 minutes with 96% vol. ethanol (96% vol. solution in water) and the biofilm retained at the bottom of the wells was stained with 1 weight % crystal violet (1 weight % solution in water). The bound dye was dissolved with 5% vol. acetic acid (5% vol. solution in water). Quantification of the stained biofilm was performed by measuring the absorbance at 630 nm using a Multiskan Ascent microplate reader (Thermo Scientific).
(§2) The experiment was carried out on three different days (thus providing 3 biological replicas) and each day the experiment was carried out in quadruple (thus providing 4 technical replicas) for each combination of bacterium with dipeptide and for each control. For each day and for each combination, the average (mean) of the values obtained (as detailed above) for the four technical replicas was calculated to provide a single value for each combination on each day. The values shown in Tables 7 to 8, below, are the average (mean) of the three single values obtained for each combination of bacterium with dipeptide.

Actinomyces viscosus = system: Actinomyces viscosus
Description: as §1, §2

[1] = system: Aggregatibacter actinomycetemcomitans
Description: as §1, §2

Capnocytophaga sputigena = system: Capnocytophaga sputigena
Description: as §1, §2

Prevotella intermedia = system: Prevotella intermedia
Description: as §1, §2

Streptococcus gordonii = system: Streptococcus gordonii
Description: as §1, §2

Streptococcus mitis = system: Streptococcus mitis
Description: as §1, §2

Streptococcus mutans = system: Streptococcus mutans
Description: as §1, §2

Streptococcus salivarius = system: Streptococcus salivarius
Description: as §1, §2

Streptococcus sanguinis = system: Streptococcus sanguinis
Description: as §1, §2

| Substance | biofilm growth: OD 630 nm (crystal violet) at 48 hrs divided by OD of control (Actinomyces naeslundii; 5 μmol/ml) | biofilm growth: OD 630 nm (crystal violet) at 48 hrs divided by OD of control (Actinomyces naeslundii; 10 μmol/ml) | biofilm growth: OD 630 nm (crystal violet) at 48 hrs divided by OD of control (Actinomyces naeslundii; 20 μmol/ml) | biofilm growth: OD 630 nm (crystal violet) at 48 hrs divided by OD of control (Actinomyces naeslundii; 25 μmol/ml) | biofilm growth: OD 630 nm (crystal violet) at 48 hrs divided by OD of control (Actinomyces viscosus; 5 μmol/ml) | biofilm growth: OD 630 nm (crystal violet) at 48 hrs divided by OD of control (Actinomyces viscosus; 10 μmol/ml) | biofilm growth: OD 630 nm (crystal violet) at 48 hrs divided by OD of control (Actinomyces viscosus; 20 μmol/ml) | biofilm growth: OD 630 nm (crystal violet) at 48 hrs divided by OD of control (Actinomyces viscosus; 25 μmol/ml) | biofilm growth: OD 630 nm (crystal violet) at 48 hrs divided by OD of control ([1]; 5 μmol/ml) | biofilm growth: OD 630 nm (crystal violet) at 48 hrs divided by OD of control ([1]; 10 μmol/ml) | biofilm growth: OD 630 nm (crystal violet) at 48 hrs divided by OD of control ([1]; 20 μmol/ml) | biofilm growth: OD 630 nm (crystal violet) at 48 hrs divided by OD of control ([1]; 25 μmol/ml) | biofilm growth: OD 630 nm (crystal violet) at 48 hrs divided by OD of control (Capnocytophaga sputigena; 5 μmol/ml) | biofilm growth: OD 630 nm (crystal violet) at 48 hrs divided by OD of control (Capnocytophaga sputigena; 10 μmol/ml) | biofilm growth: OD 630 nm (crystal violet) at 48 hrs divided by OD of control (Capnocytophaga sputigena; 20 μmol/ml) | biofilm growth: OD 630 nm (crystal violet) at 48 hrs divided by OD of control (Capnocytophaga sputigena; 25 μmol/ml) | biofilm growth: OD 630 nm (crystal violet) at 48 hrs divided by OD of control (Prevotella intermedia; 5 μmol/ml) | biofilm growth: OD 630 nm (crystal violet) at 48 hrs divided by OD of control (Prevotella intermedia; 10 μmol/ml) | biofilm growth: OD 630 nm (crystal violet) at 48 hrs divided by OD of control (Prevotella intermedia; 20 μmol/ml) | biofilm growth: OD 630 nm (crystal violet) at 48 hrs divided by OD of control (Prevotella intermedia; 25 μmol/ml) | also measured |
| --- | --- | --- | --- | --- | --- | --- | --- | --- | --- | --- | --- | --- | --- | --- | --- | --- | --- | --- | --- | --- | --- |
| Met-Pro | 1.1703 | 0.9986 | 0.4130 | 0.1281 | 0.4286 | 0.4021 | 0.1766 | 0.0355 | 0.8177 | 0.5095 | 0.2556 | 0.1103 | 0.2411 | 0.1949 | 0.1660 | 0.0138 | 1.2520 | 0.9773 | 0.2095 | 0.1148 | biofilm growth: OD 630 nm (crystal violet) at 48 hrs divided by OD of control (Streptococcus gordonii; 5 μmol/ml): 1.4212; biofilm growth: OD 630 nm (crystal violet) at 48 hrs divided by OD of control (Streptococcus gordonii; 10 μmol/ml): 1.8572; biofilm growth: OD 630 nm (crystal violet) at 48 hrs divided by OD of control (Streptococcus gordonii; 20 μmol/ml): 1.6395; biofilm growth: OD 630 nm (crystal violet) at 48 hrs divided by OD of control (Streptococcus gordonii; 25 μmol/ml): 1.4372; biofilm growth: OD 630 nm (crystal violet) at 48 hrs divided by OD of control (Streptococcus mitis; 5 μmol/ml): 1.3974; biofilm growth: OD 630 nm (crystal violet) at 48 hrs divided by OD of control (Streptococcus mitis; 10 μmol/ml): 1.4008; biofilm growth: OD 630 nm (crystal violet) at 48 hrs divided by OD of control (Streptococcus mitis; 20 μmol/ml): 0.2959; biofilm growth: OD 630 nm (crystal violet) at 48 hrs divided by OD of control (Streptococcus mitis; 25 μmol/ml): 0.0464; biofilm growth: OD 630 nm (crystal violet) at 48 hrs divided by OD of control (Streptococcus mutans; 5 μmol/ml): 0.0252; biofilm growth: OD 630 nm (crystal violet) at 48 hrs divided by OD of control (Streptococcus mutans; 10 μmol/ml): 0.0118; biofilm growth: OD 630 nm (crystal violet) at 48 hrs divided by OD of control (Streptococcus mutans; 20 μmol/ml): 0.9625; biofilm growth: OD 630 nm (crystal violet) at 48 hrs divided by OD of control (Streptococcus mutans; 25 μmol/ml): 1.3235; biofilm growth: OD 630 nm (crystal violet) at 48 hrs divided by OD of control (Streptococcus salivarius; 5 μmol/ml): 0.8003; biofilm growth: OD 630 nm (crystal violet) at 48 hrs divided by OD of control (Streptococcus salivarius; 10 μmol/ml): 0.9847; biofilm growth: OD 630 nm (crystal violet) at 48 hrs divided by OD of control (Streptococcus salivarius; 20 μmol/ml): 1.0385; biofilm growth: OD 630 nm (crystal violet) at 48 hrs divided by OD of control (Streptococcus salivarius; 25 μmol/ml): 1.4734; biofilm growth: OD 630 nm (crystal violet) at 48 hrs divided by OD of control (Streptococcus sanguinis; 5 μmol/ml): 1.1768; biofilm growth: OD 630 nm (crystal violet) at 48 hrs divided by OD of control (Streptococcus sanguinis; 10 μmol/ml): 1.7015; biofilm growth: OD 630 nm (crystal violet) at 48 hrs divided by OD of control (Streptococcus sanguinis; 20 μmol/ml): 2.1767; biofilm growth: OD 630 nm (crystal violet) at 48 hrs divided by OD of control (Streptococcus sanguinis; 25 μmol/ml): 1.6580 |
| Phe-Glu | 0.9914 | 0.4234 | 0.0174 | 0.0067 | 1.3972 | 1.2242 | 0.0684 | 0.0490 | 0.5867 | 0.3454 | 0.0481 | 0.0212 | 0.1909 | 0.1079 | 0.1578 | 0.2648 | 0.7904 | 0.1852 | 0.2103 | 0.2516 | biofilm growth: OD 630 nm (crystal violet) at 48 hrs divided by OD of control (Streptococcus gordonii; 5 μmol/ml): 1.8315; biofilm growth: OD 630 nm (crystal violet) at 48 hrs divided by OD of control (Streptococcus gordonii; 10 μmol/ml): 1.7019; biofilm growth: OD 630 nm (crystal violet) at 48 hrs divided by OD of control (Streptococcus gordonii; 20 μmol/ml): 0.6462; biofilm growth: OD 630 nm (crystal violet) at 48 hrs divided by OD of control (Streptococcus gordonii; 25 μmol/ml): 0.2237; biofilm growth: OD 630 nm (crystal violet) at 48 hrs divided by OD of control (Streptococcus mitis; 5 μmol/ml): 0.7237; biofilm growth: OD 630 nm (crystal violet) at 48 hrs divided by OD of control (Streptococcus mitis; 10 μmol/ml): 0.0179; biofilm growth: OD 630 nm (crystal violet) at 48 hrs divided by OD of control (Streptococcus mitis; 20 μmol/ml): 0.0264; biofilm growth: OD 630 nm (crystal violet) at 48 hrs divided by OD of control (Streptococcus mitis; 25 μmol/ml): 0.1018; biofilm growth: OD 630 nm (crystal violet) at 48 hrs divided by OD of control (Streptococcus mutans; 5 μmol/ml): 0.0781; biofilm growth: OD 630 nm (crystal violet) at 48 hrs divided by OD of control (Streptococcus mutans; 10 μmol/ml): 0.5693; biofilm growth: OD 630 nm (crystal violet) at 48 hrs divided by OD of control (Streptococcus mutans; 20 μmol/ml): 1.2009; biofilm growth: OD 630 nm (crystal violet) at 48 hrs divided by OD of control (Streptococcus mutans; 25 μmol/ml): 0.4072; biofilm growth: OD 630 nm (crystal violet) at 48 hrs divided by OD of control (Streptococcus salivarius; 5 μmol/ml): 1.4007; biofilm growth: OD 630 nm (crystal violet) at 48 hrs divided by OD of control (Streptococcus salivarius; 10 μmol/ml): 1.0359; biofilm growth: OD 630 nm (crystal violet) at 48 hrs divided by OD of control (Streptococcus salivarius; 20 μmol/ml): 0.8978; biofilm growth: OD 630 nm (crystal violet) at 48 hrs divided by OD of control (Streptococcus salivarius; 25 μmol/ml): 0.7342; biofilm growth: OD 630 nm (crystal violet) at 48 hrs divided by OD of control (Streptococcus sanguinis; 5 μmol/ml): 1.2254; biofilm growth: OD 630 nm (crystal violet) at 48 hrs divided by OD of control (Streptococcus sanguinis; 10 μmol/ml): 1.0551; biofilm growth: OD 630 nm (crystal violet) at 48 hrs divided by OD of control (Streptococcus sanguinis; 20 μmol/ml): 0.5417; biofilm growth: OD 630 nm (crystal violet) at 48 hrs divided by OD of control (Streptococcus sanguinis; 25 μmol/ml): 0.4820 |
